This is an account of results in patent publication US10561739B2, “Targeted pyrrolobenzodiazapine conjugates” (priority 2010, dated 2020).

As usually defined, the IC50 is the concentration needed to halve the response being measured.

Common to all, as to type: cell-based
The test system of one assay is Caki-1 cells. Description: Free drug 48 hour Cell Titer Glo cytotoxicity, Caki-1. The conditions noted are these: Homo sapiens, Table 3, 48 hours, read-out: IC50 Summary for Free Drugs, Caki-1. How it is done: (§1) Referring to the following Table 3, the activities of compounds 23, 25, are compared to that of compound 11 on 786-O, Caki-1, MCF-7, HL-60, THP-1, HEL, and TF1 cells. Cells were plated in 150 μL growth media per well into black-sided clear-bottom 96-well plates (Costar, Corning) and allowed to settle for 1 hour in the biological cabinet before placing in the incubator at 37° C., 5% CO2. The following day, 4× concentration of drug stocks were prepared, and then titrated as 10-fold serial dilutions producing 8-point dose curves and added at 50 μl per well in duplicate. Cells were then incubated for 48 hours at 37° C., 5% CO2. Cytotoxicity was measure by incubating with 100 μL Cell Titer Glo (Promega) solution for 1 hour, and then luminescence was measured on a Fusion HT plate reader (Perkin Elmer). Data was processed with Excel (Microsoft) and GraphPad (Prism) to produce dose response curves and IC50 values were generated and data collected.
(In ATP-based viability assays light output follows the ATP content of the culture.)

The subject of a further assay is A2780 parental cell line. Description: A2780 assay (MTT cytotoxicity). The following applies: Homo sapiens, 72 hours. How it is done:
The A2780 parental cell line was grown in Dulbecco's Modified Eagles' Media (DMEM) containing ˜10% Foetal Calf Serum (FCS) and ˜1% 200 mM L-Glutamine solution and grown in Corning Cellbind 75 cm^2 flasks.
A 190 μl cell suspension was added (at 1×10^4) to each well of columns 2 to 11 of a 96 well plate (Nunc 96F flat bottom TC plate), 190 μl of media was added to each well of columns 1 and 12. The media was Dulbecco's Modified Eagles' Media (DMEM) (which included ˜10% Foetal Calf Serum (FCS) and ˜1% 200 mM L-Glutamine solution).
Plates were incubated overnight at 37° C. before addition of drug if cells were adherent, 200 μM of the test compound solutions (in 100% DMSO) were serially diluted across a 96 well plate. Each resulting point was then further diluted 1/10 into sterile distilled water (SDW).
To the cell negative blanks and compound negative control wells, 10% DMSO was added at 5% v/v. Assay plates were incubated for the following durations at 37° C. in 5% CO2 in a humidified incubator for 72 hours. Following incubation, MTT solution to a final concentration of 1.5 μM was added to each well. The plates were then incubated for a further 4 hours at 37° C. in 5% CO2 in a humidified incubator. […]
Plates were read at 540 nm absorbance using an Envision plate reader. Data was analysed using Microsoft Excel and GraphPad Prism and IC50 values obtained.

The next assay relates to 786-O cells. Description: Free drug 48 hour Cell Titer Glo cytotoxicity, 786-O. The following applies: Homo sapiens, 786-0, Table 3, 48 hours, read-out: IC50 Summary for Free Drugs, 786-O. The procedure:
as §1

A further assay relates to TF1a cells. The assay is described as follows: Free drug 48 hour Cell Titer Glo cytotoxicity, TF1a. The following applies: TF-1a, Table 3, 48 hours, read-out: IC50 Summary for Free Drugs, TF1a. How it is done:
as §1

Assay [1] concerns MCF-7 cells. The assay is described as follows: Free drug 48 hour Cell Titer Glo cytotoxicity, MCF-7. The conditions noted are these: Homo sapiens, MCF7, Table 3, 48 hours, read-out: IC50 Summary for Free Drugs, MCF-7. How it is done:
as §1

Another assay concerns HL-60 cells. The assay is described as follows: Free drug 48 hour Cell Titer Glo cytotoxicity, HL-60. The following applies: Homo sapiens, Table 3, 48 hours, read-out: IC50 Summary for Free Drugs, HL-60. The procedure:
as §1

The next assay relates to THP-1 cells. The assay is described as follows: Free drug 48 hour Cell Titer Glo cytotoxicity, THP-1. The following applies: Homo sapiens, Table 3, 48 hours, read-out: IC50 Summary for Free Drugs, THP-1. The procedure:
as §1

A further assay relates to HEL cells. Description: Free drug 48 hour Cell Titer Glo cytotoxicity, HEL. The conditions noted are these: Homo sapiens, Table 3, 48 hours, read-out: IC50 Summary for Free Drugs, HEL. The procedure: as §1
The next assay deals with AML cell line HEL. The assay is described as follows: Free drug 96-hour resazurin cytotoxicity assay, HEL. The conditions noted are these: Table 1, 96-hour assay, read-out: IC50 Summary for Free Drugs, HEL. The procedure:
(§2) The cytotoxicity of various free drug compounds was tested on a renal cell cancer cell line, 786-O, a Hodgkin lymphoma cell line, L428 and two AML cell lines, HL60 and HEL.
(§3) For a 96-hour assay, cells cultured in log-phase growth were seeded for 24 h in 96-well plates containing 150 μL RPMI 1640 supplemented with 20% FBS. Serial dilutions of test article (i.e., free drug) in cell culture media were prepared at 4× working concentration; 50 μL of each dilution was added to the 96-well plates. Following addition of test article, the cells were incubated with test articles for 4 days at 37° C. Resazurin was then added to each well to achieve a 50 μM final concentration, and the plates were incubated for an additional 4 h at 37° C. The plates were then read for the extent of dye reduction on a Fusion HT plate reader (Packard Instruments, Meridien, Conn., USA) with excitation and emission wavelengths of 530 and 590 nm, respectively. The IC50 value, determined in triplicate, is defined here as the concentration that results in a 50% reduction in cell growth relative to untreated controls.

The subject of assay [2] is MCF-7 cells. Description: Free drug cytotoxicity assay, MCF-7 (Table 2). The following applies: Homo sapiens, MCF7; Table 2; read-out: IC50 Summary for Free Drugs, MCF-7. How it is done:
as §3
Referring to the following Table 2, the activity of compounds 28, 30 and 32 is shown on L428, 786-O, HEL, HL-60 and MCF-7 cells, as well as the activity for compound 19 on MCF-7 cells.

In assay [3] the test system is Hodgkin lymphoma cell line, L428. The assay is described as follows: Free drug 96-hour resazurin cytotoxicity assay, L428. The conditions noted are these: Homo sapiens, L-428, Table 1, 96-hour assay, read-out: IC50 Summary for Free Drugs, L428. How it is done:
as §2, §3
For orientation: Alamar Blue is a resazurin reagent that responds to reducing activity.

A further assay concerns AML cell line HL60. The assay is described as follows: Free drug 96-hour resazurin cytotoxicity assay, HL60. The following applies: Homo sapiens, HL-60, Table 1, 96-hour assay, read-out: IC50 Summary for Free Drugs, HL60. How it is done: as §2, §3
Assay [4] relates to renal cell cancer cell line, 786-O. Description: Free drug 96-hour resazurin cytotoxicity assay, 786-O. The following applies: Homo sapiens, 786-0, Table 1, 96-hour assay, read-out: IC50 Summary for Free Drugs, 786-O. How it is done:
as §2, §3

SMILES strings stand for the structures.

Take `COc1ccc(C2=CN3C(=O)c4cc(OC)c(OCCCOc5cc6c(cc5OC)C(=O)N5C=C(c7ccc(N)cc7)C[C@H]5C=N6)cc4N=C[C@@H]3C2)cc1` [Compound 11, (S)-2-(4-aminophenyl)-7-methoxy-8-(3-((S)-7-methoxy-2-(4-methoxyphenyl)-5-oxo-5,11a-dihydro-1H-pyrrolo[2,1-c][1,4]benzodiazepine-8-yloxy)propoxy)-1H-pyrrolo[2,1-c][1,4]benzodiazepine-5(11aH)-one]: the IC50 in the assay with Caki-1 cells was found to be 0.2 nM; in the assay on A2780 parental cell line, 11700 nM; in the assay on 786-O cells, 0.4 nM; in the assay on TF1a cells, 1 nM; with MCF-7 cells [1] it was 1 nM; in the assay on HL-60 cells, 0.01 nM. In addition, the half-inhibitory concentration (IC50) in the assay on THP-1 cells came to 1 nM; with HEL cells it was 0.03 nM.
Turning to `COc1ccc(C2=CN3C(=O)c4cc(OC)c(OCCCOc5cc6c(cc5OC)C(=O)N5C=C(c7cccc(N)c7)C[C@H]5C=N6)cc4N=C[C@@H]3C2)cc1` [Compound 19, (S)-2-(3-aminophenyl)-7-methoxy-8-(3-((S)-7-methoxy-2-(4-methoxyphenyl)-5-oxo-5,11a-dihydro-1H-pyrrolo[2,1-c][1,4]benzodiazepine-8-yloxy)propyloxy)-1H-pyrrolo[2,1-c][1,4]benzodiazepine-5(11aH)-one], the concentration for half-maximal inhibition (IC50) in the assay with AML cell line HEL was determined as 0.2 nM; with MCF-7 cells [2] it was 5 nM; in [3] it was 1 nM; in the assay on AML cell line HL60, 0.6 nM; in assay [4] it was 0.5 nM.
